These results are taken from patent publication US9549932B2, “2-(morpholin-4-yl)-1,7-naphthyridines” (BAYER PHARMA AKTIENGESELLSCHAFT, priority 2014, dated 2017).

The test deals with full-length human ATR protein (Homo sapiens (Human), UniProt Q13535). Briefly: Binding assay ATR (TR-FRET tracer displacement). As to conditions: tracer A, TR-FRET; read-out: ATR binding (tracer A) IC50. A digest of the protocol: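 Full-length human GST-ATR co-purified with ATRIP, pre-complexed 30 min at 22 °C with anti-GST-Tb antibody, then pre-bound with compound 10 min. Tracer A or B added (2 µl of 100 nM solution), 30 min at 22 °C.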
Sequence of full-length human ATR protein (Q13535 other isoform, or with tags, fused parts or gaps): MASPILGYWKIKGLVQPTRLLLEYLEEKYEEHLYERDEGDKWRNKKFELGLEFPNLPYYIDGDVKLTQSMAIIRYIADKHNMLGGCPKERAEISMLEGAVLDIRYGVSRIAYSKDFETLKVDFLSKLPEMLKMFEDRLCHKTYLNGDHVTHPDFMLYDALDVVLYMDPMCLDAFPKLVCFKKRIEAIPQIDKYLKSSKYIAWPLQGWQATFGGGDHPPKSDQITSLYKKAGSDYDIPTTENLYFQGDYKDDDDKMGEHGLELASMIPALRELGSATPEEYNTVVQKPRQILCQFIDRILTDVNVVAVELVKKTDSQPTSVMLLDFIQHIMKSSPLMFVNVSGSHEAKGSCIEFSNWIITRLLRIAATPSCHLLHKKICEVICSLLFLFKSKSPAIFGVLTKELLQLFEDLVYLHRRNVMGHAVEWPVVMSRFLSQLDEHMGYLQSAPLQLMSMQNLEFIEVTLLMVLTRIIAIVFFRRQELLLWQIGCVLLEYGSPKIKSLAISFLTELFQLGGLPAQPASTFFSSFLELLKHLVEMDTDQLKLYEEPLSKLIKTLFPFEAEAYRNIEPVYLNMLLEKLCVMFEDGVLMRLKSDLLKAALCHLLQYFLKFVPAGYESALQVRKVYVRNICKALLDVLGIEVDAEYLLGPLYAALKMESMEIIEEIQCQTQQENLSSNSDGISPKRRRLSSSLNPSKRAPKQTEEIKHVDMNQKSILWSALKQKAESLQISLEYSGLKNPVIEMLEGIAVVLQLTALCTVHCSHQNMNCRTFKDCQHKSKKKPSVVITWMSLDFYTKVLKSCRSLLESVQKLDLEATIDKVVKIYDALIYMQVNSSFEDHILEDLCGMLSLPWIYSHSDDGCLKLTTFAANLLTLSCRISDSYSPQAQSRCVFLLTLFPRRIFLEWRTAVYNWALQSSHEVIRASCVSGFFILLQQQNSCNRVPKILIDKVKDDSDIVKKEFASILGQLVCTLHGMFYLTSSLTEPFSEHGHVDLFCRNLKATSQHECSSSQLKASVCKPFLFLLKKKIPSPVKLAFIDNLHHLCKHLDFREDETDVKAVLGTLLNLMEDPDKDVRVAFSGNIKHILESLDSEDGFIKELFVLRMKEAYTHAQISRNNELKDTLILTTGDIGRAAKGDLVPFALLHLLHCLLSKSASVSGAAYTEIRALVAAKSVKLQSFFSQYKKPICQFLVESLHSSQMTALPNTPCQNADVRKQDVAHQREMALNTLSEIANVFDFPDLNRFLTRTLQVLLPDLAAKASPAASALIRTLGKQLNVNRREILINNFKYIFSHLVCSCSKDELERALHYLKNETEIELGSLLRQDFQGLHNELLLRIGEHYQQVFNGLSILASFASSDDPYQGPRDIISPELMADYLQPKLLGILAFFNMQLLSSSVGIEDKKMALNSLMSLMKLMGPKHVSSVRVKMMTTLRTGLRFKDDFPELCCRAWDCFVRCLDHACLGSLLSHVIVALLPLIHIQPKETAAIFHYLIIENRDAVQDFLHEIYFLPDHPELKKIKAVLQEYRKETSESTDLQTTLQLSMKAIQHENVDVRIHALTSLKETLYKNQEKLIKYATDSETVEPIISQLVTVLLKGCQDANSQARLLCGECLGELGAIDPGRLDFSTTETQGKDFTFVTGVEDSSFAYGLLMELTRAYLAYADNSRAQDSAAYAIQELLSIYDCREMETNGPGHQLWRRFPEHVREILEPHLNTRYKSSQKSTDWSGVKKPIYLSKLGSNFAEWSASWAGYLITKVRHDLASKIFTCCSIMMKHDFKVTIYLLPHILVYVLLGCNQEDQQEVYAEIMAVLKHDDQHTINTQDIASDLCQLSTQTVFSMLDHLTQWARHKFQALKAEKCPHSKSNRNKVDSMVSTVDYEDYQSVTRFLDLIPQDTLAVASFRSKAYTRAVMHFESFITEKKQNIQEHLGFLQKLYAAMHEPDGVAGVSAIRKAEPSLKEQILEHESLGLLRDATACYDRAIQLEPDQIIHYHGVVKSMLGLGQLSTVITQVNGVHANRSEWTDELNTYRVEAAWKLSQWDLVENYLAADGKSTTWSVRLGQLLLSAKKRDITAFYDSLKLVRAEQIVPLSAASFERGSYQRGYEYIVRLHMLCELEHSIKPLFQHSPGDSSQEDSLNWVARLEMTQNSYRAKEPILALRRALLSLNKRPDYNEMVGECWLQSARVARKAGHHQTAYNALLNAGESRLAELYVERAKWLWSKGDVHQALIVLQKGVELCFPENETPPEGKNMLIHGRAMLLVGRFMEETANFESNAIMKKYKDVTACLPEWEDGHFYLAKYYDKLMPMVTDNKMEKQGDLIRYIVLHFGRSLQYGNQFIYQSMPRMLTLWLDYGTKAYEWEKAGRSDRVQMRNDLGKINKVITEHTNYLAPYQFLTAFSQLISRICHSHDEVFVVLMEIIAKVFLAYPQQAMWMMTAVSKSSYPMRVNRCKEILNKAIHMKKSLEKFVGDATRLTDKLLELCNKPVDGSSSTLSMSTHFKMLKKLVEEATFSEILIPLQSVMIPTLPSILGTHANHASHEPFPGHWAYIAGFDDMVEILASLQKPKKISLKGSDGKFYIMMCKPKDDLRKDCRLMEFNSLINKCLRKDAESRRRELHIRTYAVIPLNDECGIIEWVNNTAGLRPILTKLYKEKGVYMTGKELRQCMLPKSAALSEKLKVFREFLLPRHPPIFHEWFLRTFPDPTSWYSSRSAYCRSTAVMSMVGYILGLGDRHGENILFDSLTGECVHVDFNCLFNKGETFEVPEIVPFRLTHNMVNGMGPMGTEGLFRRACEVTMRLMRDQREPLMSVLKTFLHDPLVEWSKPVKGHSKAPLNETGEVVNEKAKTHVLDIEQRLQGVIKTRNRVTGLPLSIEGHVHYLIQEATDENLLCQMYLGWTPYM
Sequence of full-length human ATR protein (Q8WXE1 other isoform, or with tags, fused parts or gaps partner): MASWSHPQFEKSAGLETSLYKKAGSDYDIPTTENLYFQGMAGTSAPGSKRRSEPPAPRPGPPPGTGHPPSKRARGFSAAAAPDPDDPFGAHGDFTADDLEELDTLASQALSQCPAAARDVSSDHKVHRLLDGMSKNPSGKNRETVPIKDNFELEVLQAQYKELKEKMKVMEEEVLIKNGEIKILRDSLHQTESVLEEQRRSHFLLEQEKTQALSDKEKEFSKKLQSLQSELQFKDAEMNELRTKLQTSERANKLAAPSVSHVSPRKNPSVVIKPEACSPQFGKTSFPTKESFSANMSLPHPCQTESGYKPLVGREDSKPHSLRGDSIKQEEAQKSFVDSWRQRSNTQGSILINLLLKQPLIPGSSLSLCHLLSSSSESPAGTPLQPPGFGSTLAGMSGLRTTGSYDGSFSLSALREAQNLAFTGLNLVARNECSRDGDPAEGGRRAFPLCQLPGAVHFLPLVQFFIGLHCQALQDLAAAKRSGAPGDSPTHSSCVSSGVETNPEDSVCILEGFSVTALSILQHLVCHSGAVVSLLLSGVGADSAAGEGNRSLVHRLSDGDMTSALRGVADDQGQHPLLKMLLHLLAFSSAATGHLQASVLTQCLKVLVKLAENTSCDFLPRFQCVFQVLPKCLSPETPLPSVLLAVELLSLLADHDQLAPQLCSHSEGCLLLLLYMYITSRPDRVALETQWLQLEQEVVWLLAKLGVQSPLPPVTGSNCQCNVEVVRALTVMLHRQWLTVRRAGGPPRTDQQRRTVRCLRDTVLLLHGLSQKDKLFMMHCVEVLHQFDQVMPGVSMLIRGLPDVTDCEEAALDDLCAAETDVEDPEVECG
Turning to `COc1ccc(-c2cc(N3CCOCC3)nc3c(-c4ccn[nH]4)nccc23)cc1` [Example 309, 4-(4-methoxyphenyl)-2-(morpholin-4-yl)-8-(1H-pyrazol-5-yl)-1,7-naphthyridine], the half-inhibitory concentration (IC50) (as a rule, the point on the concentration scale where inhibition reaches its midpoint) stood at 0.146 µM.

For the compound `c1coc(Cc2cc(N3CCOCC3)nc3c(-c4ccn[nH]4)nccc23)c1` [Example 310, 4-(furan-2-ylmethyI)-2-(morpholin-4-yl)-8-(1H-pyrazol-5-yl)-1,7-naphthyridine], the 50% inhibitory concentration (IC50) is 0.0977 µM.

In the case of `Cc1cc(-c2cc(N3CCOCC3)nc3c(-c4ccn[nH]4)nccc23)cc(C)c1O` [Example 311, 2,6-dimethyl-4-[2-(morpholin-4-yl)-8-(1H-pyrazol-5-yl)-1,7-naphthyridin-4-yl]phenol], the IC50 came to 0.376 µM.

As to `Cc1cccc(-c2cc(N3CCOCC3)nc3c(-c4ccn[nH]4)nccc23)c1C` [Example 312, 4-(2,3-dimethylphenyl)-2-(morpholin-4-yl)-8-(1H-pyrazol-5-yl)-1,7-naphthyridine], the IC50 came to 0.0237 µM.

`OCc1cccc(-c2cc(N3CCOCC3)nc3c(-c4ccn[nH]4)nccc23)c1` [Example 313, {3-[2-(morpholin-4-yl)-8-(1H-pyrazol-5-yl)-1,7-naphthyridin-4-yl]phenyl}methanol]: the IC50 was 0.029 µM.

For the compound `Fc1ccc(-c2cc(N3CCOCC3)nc3c(-c4ccn[nH]4)nccc23)cc1` [Example 314, 4-(4-fluorophenyl)-2-(morpholin-4-yl)-8-(1H-pyrazol-5-yl)-1,7-naphthyridine], the IC50 amounted to 0.0679 µM.

On to `Clc1ccc(-c2cc(N3CCOCC3)nc3c(-c4ccn[nH]4)nccc23)cc1` [Example 316, 4-(4-chlorophenyl)-2-(morpholin-4-yl)-8-(1H-pyrazol-5-yl)-1,7-naphthyridine], for which the IC50 is 0.0532 µM.

Regarding `COc1cccc(-c2cc(N3CCOCC3)nc3c(-c4ccn[nH]4)nccc23)c1F` [Example 317, 4-(2-fluoro-3-methoxyphenyl)-2-(morpholin-4-yl)-8-(1H-pyrazol-5-yl)-1,7-naphthyridine], the IC50 came to 0.0665 µM.

Turning to `Cc1ccccc1-c1cc(N2CCOCC2)nc2c(-c3ccn[nH]3)nccc12` [Example 318, 4-(2-methylphenyl)-2-(morpholin-4-yl)-8-(1H-pyrazol-5-yl)-1,7-naphthyridine], the half-maximal inhibitory concentration (IC50) came to 0.0306 µM.

Turning to `COc1cccc(-c2cc(N3CCOCC3)nc3c(-c4ccn[nH]4)nccc23)c1OC` [Example 319, 4-(2,3-dimethoxyphenyl)-2-(morpholin-4-yl)-8-(1H-pyrazol-5-yl)-1,7-naphthyridine], the 50% inhibitory concentration (IC50) was found to be 0.325 µM.

Consider `CN(C)c1ccccc1-c1cc(N2CCOCC2)nc2c(-c3ccn[nH]3)nccc12` [Example 321, N,N-dimethyl-2-[2-(morpholin-4-yl)-8-(1H-pyrazol-5-yl)-1,7-naphthyridin-4-yl]aniline], for which the IC50 came to 0.0444 µM.

`CS(=O)(=O)Nc1ccccc1-c1cc(N2CCOCC2)nc2c(-c3ccn[nH]3)nccc12` [Example 322, N-{2-[2-(morpholin-4-yl)-8-(1H-pyrazol-5-yl)-1,7-naphthyridin-4-yl]phenyl}methanesulfonamide]: the IC50 was found to be 0.0809 µM.

For the compound `CN(C)C(=O)c1ccc(-c2cc(N3CCOCC3)nc3c(-c4ccn[nH]4)nccc23)cc1` [Example 324, N,N-dimethyl-4-[2-(morpholin-4-yl)-8-(1H-pyrazol-5-yl)-1,7-naphthyridin-4-yl]benzamide], the half-inhibitory concentration (IC50) came out at 0.0777 µM.

`C/C=C/c1cc(N2CCOCC2)nc2c(-c3ccn[nH]3)nccc12` [Example 325, 2-(morpholin-4-yl)-4-[(1E)-prop-1-en-1-yl]-8-(1H-pyrazol-5-yl)-1,7-naphthyridine]: the IC50 was found to be 0.0344 µM.

Consider `Oc1ccc(-c2cc(N3CCOCC3)nc3c(-c4ccn[nH]4)nccc23)cc1` [Example 326, 4-[2-(morpholin-4-yl)-8-(1H-pyrazol-5-yl)-1,7-naphthyridin-4-yl]phenol], for which the IC50 worked out at 0.0732 µM.

Consider `Fc1ccccc1-c1cc(N2CCOCC2)nc2c(-c3ccn[nH]3)nccc12` [Example 327, 4-(2-fluorophenyl)-2-(morpholin-4-yl)-8-(1H-pyrazol-5-yl)-1,7-naphthyridine], for which the concentration for half-maximal inhibition (IC50) came to 0.0177 µM.
